Where a name gives a salt, the structure may show the parent alone.
Key:
[1] = biological target: T1, human cloned 5-HT2B receptors (Homo sapiens, UniProt P41595); experiment: Human cloned 5-HT2B receptor binding assay; conditions: [3H]LSD (1 nM) displacement, membranes of CHO-K1 cells expressing cloned 5-HT2B receptor; read-out: 5-HT2B pKi (converted)
T1 construct: expressed in transfected cells; host or cells: CHO-K1
Procedure: The binding affinity of the compounds for human cloned 5-HT2B receptors was determined using the following assay.
CHO-K1 cells expressing cloned 5-HT2B receptor were maintained in Ultra-CHO medium containing 400 μg/ml of G418, 100 U/ml penicillin, 100 μg/ml streptomycin, 2.5 μg/ml fungizone and 1-foetal bovine serum, in 95/5% O2/CO2 at 37° C. The cells were harvested using 0.25% trypsin and were centrifuged at 800 rpm for 8 minutes. The cells were homogenised in 50 mM HEPES buffer containing 1 mM disodium EDTA and 1 mM PMSF at pH 7.4, using a Dounce homogeniser (20 strokes). The homogenate was centrifuged at 2280 rpm (1000 g) and 4° C. for 10 minutes, after which the supernatant was removed by decanting. The pellet was re-homogenised as above, and the resulting supernatant removed and combined with that already obtained. The supernatant solution was then centrifuged at 18300 rpm (40000 g) for 10 minutes at 4° C. using a Sorvall centrifuge. The supernatant was removed, and the pellet was re-suspended in 50 mM buffer at pH 7.4 using a Ultra-turrax T25 Polytron, before centrifugation again at 40000 g as above. This wash procedure was repeated, after which the membrane preparation was stored at a concentration of 1 mg/ml at −80° C. until use.
The membranes were thawed rapidly and diluted in assay buffer containing Tris-HCl (50 mM, pH 7.4), ascorbic acid (0.1°) and calcium chloride (4 mM). The membranes were homogenised to resuspend them, prior to adding 10 or 15 μg of membranes to assay wells containing [^3H]LSD (1 nM), assay buffer (50 mM Tris, 4 mM calcium chloride and 0.1° ascorbic acid) containing pargyline (10 μM), and the test compounds (1×10^−10 to 1×10^−4M). Non specific binding was determined in the presence of 100 μM 5-HT. After 30 minutes incubation at 37° C., the assay mixture was filtered through a combination of GF-C and GF-B filters, pre-soaked in 1% polyethyleneimine, using a Brandel cell harvester, and were washed three times using 50 mM Tris-HCl. Radioactivity retained on the filters was determined by liquid scintillation counting. For each test compound, the concentration that inhibited binding of [^3H]LSD by 50% was determined using curve fitting software (Prism). Kd values (concentration of LSD required to occupy 50% of the receptor binding sites at equilibrium) determined from saturation binding studies were then used to calculate inhibition dissociation constants (Ki) using the following equation: […]
This approach follows that set out in Kenakin, T. P. Pharmacologic analysis of drug-receptor interaction. Raven Press, New York, 2nd Edition.

[2] = biological target: T2, cloned human 5-HT2A receptor (Homo sapiens, UniProt P28223); experiment: Human 5-HT2A receptor binding assay; conditions: [3H]ketanserin (1 nM) displacement, CHO-K1 cell membranes; read-out: 5-HT2A pKi (converted)
T2 construct: purchased Euroscreen; host or cells: CHO-K1
T2 sequence (P28223 whole entry): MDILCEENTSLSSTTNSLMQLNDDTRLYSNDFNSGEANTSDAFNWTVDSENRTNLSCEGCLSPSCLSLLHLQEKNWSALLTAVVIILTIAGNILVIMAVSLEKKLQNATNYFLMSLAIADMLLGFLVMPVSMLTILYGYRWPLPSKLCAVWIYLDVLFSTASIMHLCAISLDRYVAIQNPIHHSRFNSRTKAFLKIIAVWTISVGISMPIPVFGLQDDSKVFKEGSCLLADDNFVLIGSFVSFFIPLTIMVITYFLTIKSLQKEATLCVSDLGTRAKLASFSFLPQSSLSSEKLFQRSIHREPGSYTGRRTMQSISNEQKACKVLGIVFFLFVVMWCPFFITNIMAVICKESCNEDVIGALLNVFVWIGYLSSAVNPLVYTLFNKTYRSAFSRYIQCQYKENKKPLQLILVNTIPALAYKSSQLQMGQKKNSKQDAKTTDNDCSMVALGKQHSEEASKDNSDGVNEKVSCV
Procedure: (§1) The binding affinity of ligands for human 5-HT2A and 5-HT2C receptors was determined using the following assay.
Membrane preparations from CHO-K1 cells expressing the cloned human 5-HT2A receptor were obtained (Euroscreen). The membranes were thawed rapidly and diluted in assay buffer containing Tris-HCl (50 mM, pH 7.7). The membranes were resuspended by homogenisation, prior to adding 15 μg of membranes to assay wells containing [3H]ketanserin (1 nM), assay buffer (50 mM Tris at pH 7.4) containing pargyline (10 μM), and test compounds (1×10^−10 to 1×10^−4M). Non specific binding was determined in the presence of 100 μM mianserin. After 15 minutes incubation at 37° C., the assay mixture was filtered through a combination of GF-C and GF-B filters, pre-soaked in 0.05% Brij, using a Brandel cell harvester, and were washed three times using ice cold Tris-HCl buffer (50 mM). Radioactivity retained on the filters was determined by liquid scintillation counting. For each test compound, the concentration that inhibited binding of [^3H]ketanserin by 50% was determined using curve fitting software (Prism). Kd values (concentration of ketanserin required to occupy 50% of the receptor binding sites at equilibrium) determined from saturation binding studies were then used to calculate inhibition dissociation constants (Ki) using the following equation: […]

[3] = biological target: T3, cloned human 5-HT2C receptor (Homo sapiens, UniProt P28335); experiment: Human 5-HT2C receptor binding assay; conditions: [3H]mesulergine (1 nM) displacement, CHO-K1 cell membranes; read-out: 5-HT2C pKi (converted)
T3 construct: purchased Euroscreen; host or cells: CHO-K1
T3 sequence (P28335 33-458): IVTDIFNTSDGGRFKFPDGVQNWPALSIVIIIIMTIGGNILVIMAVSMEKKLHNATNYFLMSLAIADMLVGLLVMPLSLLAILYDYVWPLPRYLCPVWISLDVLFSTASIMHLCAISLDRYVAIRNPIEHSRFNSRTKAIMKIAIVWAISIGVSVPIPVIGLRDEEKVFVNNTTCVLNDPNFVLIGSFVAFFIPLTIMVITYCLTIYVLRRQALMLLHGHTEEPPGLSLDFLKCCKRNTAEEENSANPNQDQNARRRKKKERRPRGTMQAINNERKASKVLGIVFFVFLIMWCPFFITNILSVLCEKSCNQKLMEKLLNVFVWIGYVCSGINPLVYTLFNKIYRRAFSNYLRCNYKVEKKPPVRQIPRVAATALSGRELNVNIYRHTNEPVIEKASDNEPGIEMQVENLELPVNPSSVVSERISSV
Procedure: as §1
Membrane preparations from CHO-K1 cells expressing the cloned human 5-HT2C receptor were obtained (Euroscreen). The membranes were thawed rapidly and diluted in assay buffer containing Tris-HCl (50 mM, pH 7.7), ascorbic acid (0.1%) and pargyline (10 μM). The membranes were resuspended by homogenisation, prior to adding 6 μg of membranes to assay wells containing [^3H]mesulergine (1 nM), assay buffer (50 mM Tris at pH 7.7 and 0.1% ascorbic acid) containing pargyline (10 μM), and test compounds (1×10^−10 to 1×10^−4M). Non specific binding was determined in the presence of 100 μM mianserin. After 30 minutes incubation at 37° C., the assay mixture was filtered through a combination of GF-C and GF-B filters, pre-soaked in 1% bovine serum albumin, using a Brandel cell harvester, and were washed three times using ice cold Tris-HCl buffer (50 mM). Radioactivity retained on the filters was determined by liquid scintillation counting. For each test compound, the concentration that inhibited binding of [^3H]mesulergine by 50% was determined using curve fitting software (Prism). Kd values (concentration of mesulergine required to occupy 50% of the receptor binding sites at equilibrium) determined from saturation binding studies were then used to calculate inhibition dissociation constants (Ki) using the following equation: […]

T1 sequence (P41595 whole entry): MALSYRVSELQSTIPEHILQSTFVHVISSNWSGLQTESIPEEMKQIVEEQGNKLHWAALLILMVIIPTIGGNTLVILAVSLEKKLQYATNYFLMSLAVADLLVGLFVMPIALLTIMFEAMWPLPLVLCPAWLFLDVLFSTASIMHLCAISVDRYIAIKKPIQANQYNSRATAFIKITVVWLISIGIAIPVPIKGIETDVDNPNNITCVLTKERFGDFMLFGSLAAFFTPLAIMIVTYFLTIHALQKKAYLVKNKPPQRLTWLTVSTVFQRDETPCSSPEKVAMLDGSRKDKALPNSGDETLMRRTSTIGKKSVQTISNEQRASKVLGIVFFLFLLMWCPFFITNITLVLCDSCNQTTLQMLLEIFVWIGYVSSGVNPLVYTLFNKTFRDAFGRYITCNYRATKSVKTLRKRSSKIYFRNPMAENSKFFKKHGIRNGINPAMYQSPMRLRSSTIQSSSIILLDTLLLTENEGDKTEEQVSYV

Structure (SMILES) | Ki [1] | Ki [2] | Ki [3]
Cc1cc(Nc2cccc(O)c2)nc(N)n1 [Compound 2Q, 3-(2-amino-6-methyl-pyrimidin-4-ylamino)-phenol hydrochloride] | < 1 µM | > 1 µM | > 1 µM
Cc1cc(Nc2cccc3c2CCC3)nc(N)n1 [Compound 2R, N^4-indan-4-yl-6-methyl-pyrimidine-2,4-diamine hydrochloride] | < 1 µM | > 1 µM | > 1 µM
Cc1cc(Nc2ccc(C)c(Br)c2)nc(N)n1 [Compound 2S, N^4-(3-bromo-4-methyl-phenyl)-6-methyl-pyrimidine-2,4-diamine hydrochloride] | < 0.1 µM | > 1 µM | > 0.316 µM
Cc1cc(Nc2cccc(Br)c2C)nc(N)n1 [Compound 2T, N^4-(3-bromo-2-methyl-phenyl)-6-methyl-pyrimidine-2,4-diamine hydrochloride] | < 1 µM | > 1 µM | > 1 µM
Cc1ccc(Nc2cc(C)nc(N)n2)cc1 [Compound 2U, 6-methyl-N^4-p-tolyl-pyrimidine-2,4-diamine hydrochloride] | < 1 µM | > 1 µM | > 1 µM
CC(=O)Nc1ccc(Nc2cc(C)nc(N)n2)cc1 [Compound 2V, N-[4-(2-amino-6-methyl-pyrimidin-4-ylamino)-phenyl]-acetamide hydrochloride] | < 1 µM | > 1 µM | > 1 µM
Cc1cc(Nc2cccc(CO)c2)nc(N)n1 [Compound 2X, [3-(2-amino-6-methyl-pyrimidin-4-ylamino)-phenyl]-methanol hydrochloride] | < 1 µM | > 1 µM | > 1 µM
Cc1cc(Nc2ccc(I)c(Cl)c2)nc(N)n1 [Compound 2Y, N-(3-chloro-4-iodo-phenyl)-6-methyl-pyrimidine-2,4-diamine hydrochloride] | < 0.1 µM | > 1 µM | > 1 µM
Cc1cc(Oc2cccc3ccccc23)nc(N)n1 [Compound 4B, 4-methyl-6-(naphthalen-1-yloxy)-pyrimidin-2-ylamine] | < 0.1 µM | > 10 µM | > 10 µM
Cc1cc(Oc2cccc(-c3ccccc3)c2)nc(N)n1 [Compound 4C, 4-(biphenyl-3-yloxy)-6-methylpyrimidin-2-ylamine] | < 1 µM | > 10 µM | > 10 µM
Cc1cccc(-c2ccc(Nc3cc(C)nc(N)n3)cc2)c1 [Compound 11B] | < 0.01 µM | > 1 µM | > 0.0316 µM
Cc1cccc(-c2cc(Nc3cc(C)nc(N)n3)ccc2C)c1 [Compound 12, N^4-(6,3′-dimethyl-biphenyl-3-yl)-6-methyl-pyrimidine-2,4-diamine] | < 0.1 µM | > 1 µM | > 1 µM
Nc1nccc(Nc2ccc(I)cc2)n1 [Compound 16, N″-(4-Iodo-phenyl)-pyrimidine-2,4-diamine] | < 1 µM | > 1 µM | > 1 µM
CCOc1ccc2ccccc2c1-c1c[nH]c(NC(C)=O)n1 [Compound 103A, N-[4-(2-Ethoxy-naphthalen-1-yl)-1H-imidazol-2-yl]-acetamide] | < 0.1 µM | > 3.16 µM | > 1 µM

The remaining lines, values ahead:

Ki [1] | Ki [2] | Ki [3] | Structure (SMILES)
< 0.1 µM | > 0.1 µM | > 0.316 µM | Cc1cc(Nc2cccc(-c3ccccc3)c2)nc(N)n1 [Compound 10A, N^4-biphenyl-3-yl-6-methyl-pyrimidine-2,4-diamine trifluoroacetic acid]
< 1 µM | > 10 µM | > 10 µM | COc1ccc(-c2cccc(Nc3cc(C)nc(N)n3)c2)cc1OC [Compound 10B, N-(3′,4′-dimethoxy-biphenyl-3-yl)-6-methyl-pyrimidine-2,4-diamine trifluoroacetic acid]
< 1 µM | > 0.316 µM | > 0.316 µM | CC(=O)c1cccc(-c2cccc(Nc3cc(C)nc(N)n3)c2)c1 [Compound 10C, 1-[3′-(2-amino-6-methyl-pyrimidin-4-ylamino)-biphenyl-3-yl]-ethanone trifluoroacetic acid]
< 1 µM | > 1 µM | > 1 µM | Cc1cc(Nc2cccc(-c3cccnc3)c2)nc(N)n1 [Compound 10D, 6-methyl-N^4-(3-pyridin-3-yl-phenyl)-pyrimidine-2,4-diamine bis trifluoroacetic acid]
< 0.1 µM | > 0.1 µM | > 0.1 µM | Cc1cccc(-c2cccc(Nc3cc(C)nc(N)n3)c2)c1 [Compound 10E, 6-methyl-N^4-(3′-methyl-biphenyl-3-yl)-pyrimidine-2,4-diamine trifluoroacetic acid]
< 0.1 µM | > 0.316 µM | > 0.1 µM | COc1ccccc1-c1cccc(Nc2cc(C)nc(N)n2)c1 [Compound 10F, N^4-(2′-methoxy-biphenyl-3-yl)-6-methyl-pyrimidine-2,4-diamine trifluoroacetic acid]
< 0.1 µM | > 0.316 µM | > 0.316 µM | Cc1cc(Nc2cccc(-c3ccc(N(C)C)cc3)c2)nc(N)n1 [Compound 10H, N^4-(4′-dimethylamino-biphenyl-3-yl)-6-methyl-pyrimidine-2,4-diamine bis trifluoroacetic acid]
< 1 µM | > 10 µM | > 10 µM | CC(=O)Nc1cccc(-c2cccc(Nc3cc(C)nc(N)n3)c2)c1 [Compound 10I, N-[3′-(2-amino-6-methyl-pyrimidin-4-ylamino)-biphenyl-3-yl]-acetamide hydrochloride]
< 0.01 µM | > 1 µM | > 0.1 µM | Cc1cc(Nc2ccc(-c3ccccc3)cc2)nc(N)n1 [Compound 11A, N^4-biphenyl-4-yl-6-methyl-pyrimidine-2,4-diamine trifluoroacetic acid]
